Test results reported in ChEMBL document CHEMBL1201862, “PubChem BioAssay data set” (2004).
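Results reflect a 48-hour exposure of cells in 96-well plates to compound at five concentrations. GI50 = concentration required for 50% inhibition of growth.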 Calls of active or inactive are those of the source. Rule as the data show it: active = GI50 up to about 1.1 µM and inactive = higher.

Legend:
Test in all cases: NCI tumour cell line growth inhibition, 48 h
A498 = tested on: A498
A549 = tested on: A549
COLO 205 = tested on: COLO 205
HL-60 = tested on: HL-60
HOP-62 = tested on: HOP-62
KM12 = tested on: KM12
MCF7 = tested on: MCF7
Malme-3M = tested on: Malme-3M
OVCAR-3 = tested on: OVCAR-3
OVCAR-8 = tested on: OVCAR-8
PC-3 = tested on: PC-3
RPMI-8226 = tested on: RPMI-8226
SF-268 = tested on: SF-268
SF-539 = tested on: SF-539
SNB-19 = tested on: SNB-19
SNB-75 = tested on: SNB-75
SR = tested on: SR
SW-620 = tested on: SW-620
TK-10 = tested on: TK-10
UACC-257 = tested on: UACC-257

Measured: GI50

Cc1cc(O)c(C=O)c2c1C(=O)Oc1c(CO)c(O)c3c(c1O2)C(O)OC3=O (stereo not given) [SLAZINIC ACID]
inactive: A498 58.3 µM | A549 > 100 µM | COLO 205 > 100 µM | HL-60 30.1 µM | HOP-62 > 100 µM | KM12 36.7 µM | MCF7 24.5 µM | Malme-3M 41 µM | OVCAR-3 77.1 µM | OVCAR-8 52.7 µM | PC-3 > 100 µM | RPMI-8226 17.4 µM | SF-268 34.4 µM | SF-539 > 100 µM | SNB-19 21.4 µM | SNB-75 24.1 µM | SR 22.6 µM | SW-620 60 µM | TK-10 > 100 µM | UACC-257 > 100 µM

OC1(c2ccccc2)CC2CCC(C1)N2CCc1ccccc1 (stereo not given)
inactive: A498 19 µM | A549 49.8 µM | COLO 205 17.6 µM | HL-60 58.9 µM | HOP-62 45.4 µM | KM12 57.9 µM | MCF7 28.6 µM | Malme-3M > 100 µM | OVCAR-3 85.5 µM | OVCAR-8 92.9 µM | PC-3 41.6 µM | RPMI-8226 30.3 µM | SF-268 > 100 µM | SF-539 81.8 µM | SNB-19 93.1 µM | SNB-75 > 100 µM | SR > 100 µM | SW-620 48.9 µM | TK-10 > 100 µM | UACC-257 24.5 µM
